Test system: barnyardgrass (Ec)
Test: Test Example 1: herbicidal effects by paddy field soil treatment;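 also: grade of growth control; 5 = at least 90%; 4 = 70 to 90%; 3 = 50 to 70%; 2 = 30 to 50%; 1 = 10 to 30%; 0 = under 10%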
Format: in vivo
Conditions: 100 g of the active ingredient per 10 ares, 21st day after the application, index 0-5 of Table 47
In short: (§1)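 Flooded paddy-soil pots (3 cm water) sown after puddling/leveling; treatment 100 g a.i./10 ares; greenhouse culture; herbicidal effect rated visually on a scoring scale at 21 d post-application.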

Compound	Herbicidal effects Ec
Cn1c(C(F)(F)F)ccc(-c2cc(COC3CCCC3)c(Cl)cc2F)c1=O [Compound 1-201]	5
Cn1c(C(F)(F)F)ccc(-c2cc3c(cc2F)sc(=O)n3C)c1=O [Compound 3-6]	5

Test system: bulrush (Sc)
Test: as above
Format: in vivo
Conditions: 100 g of the active ingredient per 10 ares, 21st day after the application, index 0-5 of Table 47
In short: as §1

Compound	Herbicidal effects Sc
Cn1c(C(F)(F)F)ccc(-c2cc(COC3CCCC3)c(Cl)cc2F)c1=O [Compound 1-201]	5
Cn1c(C(F)(F)F)ccc(-c2cc3c(cc2F)sc(=O)n3C)c1=O [Compound 3-6]	5

Test system: monochoria (Mo)
Test: as above
Format: in vivo
Conditions: 100 g of the active ingredient per 10 ares, 21st day after the application, index 0-5 of Table 47
In short: as §1

Compound	Herbicidal effects Mo
Cn1c(C(F)(F)F)ccc(-c2cc(COC3CCCC3)c(Cl)cc2F)c1=O [Compound 1-201]	5
Cn1c(C(F)(F)F)ccc(-c2cc3c(cc2F)sc(=O)n3C)c1=O [Compound 3-6]	5

Test system: Digitaria ciliaris (Di)
Test: Test Example 2: herbicidal effects by upland field soil treatment;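 also: grade of growth control; 5 = at least 90%; 4 = 70 to 90%; 3 = 50 to 70%; 2 = 30 to 50%; 1 = 10 to 30%; 0 = under 10%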
Format: in vivo
Conditions: 100 g of the active ingredient per 10 ares, evaluated on the 21st day after application
Excerpt: (§2) (Test on Herbicidal Effects by Upland Field Soil Treatment)

Compound	Herbicidal effects Di
Cn1c(C(F)(F)F)ccc(-c2cc(COC3CCCC3)c(Cl)cc2F)c1=O [Compound 1-201]	5
Cn1c(C(F)(F)F)ccc(-c2cc3c(cc2F)sc(=O)n3C)c1=O [Compound 3-6]	5

Test system: barnyardgrass (Ec)
Test: as above
Format: in vivo
Conditions: 100 g of the active ingredient per 10 ares, evaluated on the 21st day after application
Excerpt: as §2

Compound	Herbicidal effects Ec
Cn1c(C(F)(F)F)ccc(-c2cc(COC3CCCC3)c(Cl)cc2F)c1=O [Compound 1-201]	5
Cn1c(C(F)(F)F)ccc(-c2cc3c(cc2F)sc(=O)n3C)c1=O [Compound 3-6]	5

Test system: common lambsquarters (Ch)
Test: as above
Format: in vivo
Conditions: 100 g of the active ingredient per 10 ares, evaluated on the 21st day after application
Excerpt: as §2

Compound	Herbicidal effects Ch
Cn1c(C(F)(F)F)ccc(-c2cc(COC3CCCC3)c(Cl)cc2F)c1=O [Compound 1-201]	5
Cn1c(C(F)(F)F)ccc(-c2cc3c(cc2F)sc(=O)n3C)c1=O [Compound 3-6]	5

Test system: pale smartweed (Po)
Test: as above
Format: in vivo
Conditions: 100 g of the active ingredient per 10 ares, evaluated on the 21st day after application
Excerpt: as §2

Compound	Herbicidal effects Po
Cn1c(C(F)(F)F)ccc(-c2cc(COC3CCCC3)c(Cl)cc2F)c1=O [Compound 1-201]	5
Cn1c(C(F)(F)F)ccc(-c2cc3c(cc2F)sc(=O)n3C)c1=O [Compound 3-6]	5

Test system: rice flatsedge (Ci)
Test: as above
Format: in vivo
Conditions: 100 g of the active ingredient per 10 ares, evaluated on the 21st day after application
Excerpt: as §2

Compound	Herbicidal effects Ci
Cn1c(C(F)(F)F)ccc(-c2cc(COC3CCCC3)c(Cl)cc2F)c1=O [Compound 1-201]	5
Cn1c(C(F)(F)F)ccc(-c2cc3c(cc2F)sc(=O)n3C)c1=O [Compound 3-6]	5

Test system: slender amaranth (Am)
Test: as above
Format: in vivo
Conditions: 100 g of the active ingredient per 10 ares, evaluated on the 21st day after application
Excerpt: as §2

Compound	Herbicidal effects Am
Cn1c(C(F)(F)F)ccc(-c2cc(COC3CCCC3)c(Cl)cc2F)c1=O [Compound 1-201]	5
Cn1c(C(F)(F)F)ccc(-c2cc3c(cc2F)sc(=O)n3C)c1=O [Compound 3-6]	5

Test system: Diaitaria ciliaris (Di)
Test: Test Example 3: herbicidal effects by upland field foliage treatment
Format: in vivo
Parameters: scale not given here
Conditions: 100 g active ingredient per 10 ares, evaluated 14th day after treatment
In short: (§3)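 Post-emergence upland foliage test. Seedlings grown 2 weeks under glass in pots (120 cm^2) of sand, seed topped with soil; treated on the foliage, kept in greenhouse, then assessed at day 14 using rating standards.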

Compound	Herbicidal effects Di
Cn1c(C(F)(F)F)ccc(-c2cc(COC3CCCC3)c(Cl)cc2F)c1=O [Compound 1-201]	5
Cn1c(C(F)(F)F)ccc(-c2cc3c(cc2F)sc(=O)n3C)c1=O [Compound 3-6]	5

Test system: barnyardgrass (Ec)
Test: as above
Format: in vivo
Parameters: scale not given here
Conditions: 100 g active ingredient per 10 ares, evaluated 14th day after treatment
In short: as §3

Compound	Herbicidal effects Ec
Cn1c(C(F)(F)F)ccc(-c2cc(COC3CCCC3)c(Cl)cc2F)c1=O [Compound 1-201]	4
Cn1c(C(F)(F)F)ccc(-c2cc3c(cc2F)sc(=O)n3C)c1=O [Compound 3-6]	5

Test system: common lambsquarters (Ch)
Test: as above
Format: in vivo
Parameters: scale not given here
Conditions: 100 g active ingredient per 10 ares, evaluated 14th day after treatment
In short: as §3

Compound	Herbicidal effects Ch
Cn1c(C(F)(F)F)ccc(-c2cc(COC3CCCC3)c(Cl)cc2F)c1=O [Compound 1-201]	5
Cn1c(C(F)(F)F)ccc(-c2cc3c(cc2F)sc(=O)n3C)c1=O [Compound 3-6]	5

Test system: pale smartweed (Po)
Test: as above
Format: in vivo
Parameters: scale not given here
Conditions: 100 g active ingredient per 10 ares, evaluated 14th day after treatment
In short: as §3

Compound	Herbicidal effects Po
Cn1c(C(F)(F)F)ccc(-c2cc(COC3CCCC3)c(Cl)cc2F)c1=O [Compound 1-201]	5
Cn1c(C(F)(F)F)ccc(-c2cc3c(cc2F)sc(=O)n3C)c1=O [Compound 3-6]	5

Test system: rice flatsedge (Ci)
Test: as above
Format: in vivo
Parameters: scale not given here
Conditions: 100 g active ingredient per 10 ares, evaluated 14th day after treatment
In short: as §3

Compound	Herbicidal effects Ci
Cn1c(C(F)(F)F)ccc(-c2cc(COC3CCCC3)c(Cl)cc2F)c1=O [Compound 1-201]	5
Cn1c(C(F)(F)F)ccc(-c2cc3c(cc2F)sc(=O)n3C)c1=O [Compound 3-6]	5

Test system: slender amaranth (Am)
Test: as above
Format: in vivo
Parameters: scale not given here
Conditions: 100 g active ingredient per 10 ares, evaluated 14th day after treatment
In short: as §3

Compound	Herbicidal effects Am
Cn1c(C(F)(F)F)ccc(-c2cc(COC3CCCC3)c(Cl)cc2F)c1=O [Compound 1-201]	5
Cn1c(C(F)(F)F)ccc(-c2cc3c(cc2F)sc(=O)n3C)c1=O [Compound 3-6]	5

Test system: wheat (Tr)
Test: Test Example 9: crop plant selectivity by upland field foliage treatment (wheat), phytotoxicity;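 also: grade of crop injury; 5 = at least 90%; 4 = 70 to 90%; 3 = 50 to 70%; 2 = 30 to 50%; 1 = 10 to 30%; 0 = under 10%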
Conditions: dose 1.6 g ai/10a, 14th day after treatment
In short: (§4)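 Wheat and weeds sown in sand-filled pots, grown 2 weeks in a greenhouse, then foliage-treated. Herbicidal effect and crop phytotoxicity were scored 14 days after treatment against a rating scale.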

Compound	Phytotoxicity Tr
Cn1c(C(F)(F)F)ccc(-c2cc(COC3CCCC3)c(Cl)cc2F)c1=O [Compound 1-201]	2
Cn1c(C(F)(F)F)ccc(-c2cc3c(cc2F)sc(=O)n3C)c1=O [Compound 3-6]	2

Test system: China jute (Ab)
Test: Test Example 9: crop plant selectivity by upland field foliage treatment (wheat), herbicidal effects
Format: in vivo
Parameters: scale not given here
Conditions: dose 1.6 g ai/10a, 14th day after treatment
In short: as §4

Compound	Herbicidal effects Ab
Cn1c(C(F)(F)F)ccc(-c2cc(COC3CCCC3)c(Cl)cc2F)c1=O [Compound 1-201]	5
Cn1c(C(F)(F)F)ccc(-c2cc3c(cc2F)sc(=O)n3C)c1=O [Compound 3-6]	5

Test system: common lambsquarters (Ch)
Test: as above
Format: in vivo
Parameters: scale not given here
Conditions: dose 1.6 g ai/10a, 14th day after treatment
In short: as §4

Compound	Herbicidal effects Ch
Cn1c(C(F)(F)F)ccc(-c2cc(COC3CCCC3)c(Cl)cc2F)c1=O [Compound 1-201]	5
Cn1c(C(F)(F)F)ccc(-c2cc3c(cc2F)sc(=O)n3C)c1=O [Compound 3-6]	5

Test system: pale smartweed (Po)
Test: as above
Format: in vivo
Parameters: scale not given here
Conditions: dose 1.6 g ai/10a, 14th day after treatment
In short: as §4

Compound	Herbicidal effects Po
Cn1c(C(F)(F)F)ccc(-c2cc(COC3CCCC3)c(Cl)cc2F)c1=O [Compound 1-201]	5
Cn1c(C(F)(F)F)ccc(-c2cc3c(cc2F)sc(=O)n3C)c1=O [Compound 3-6]	5

Test system: slender amaranth (Am)
Test: as above
Format: in vivo
Parameters: scale not given here
Conditions: dose 1.6 g ai/10a, 14th day after treatment
In short: as §4

Compound	Herbicidal effects Am
Cn1c(C(F)(F)F)ccc(-c2cc(COC3CCCC3)c(Cl)cc2F)c1=O [Compound 1-201]	5
Cn1c(C(F)(F)F)ccc(-c2cc3c(cc2F)sc(=O)n3C)c1=O [Compound 3-6]	5

Test system: corn (Ze)
Test: Test Example 11: crop plant selectivity by upland field foliage treatment (corn), phytotoxicity
Conditions: upland field foliage treatment, dose 1.6 g ai/10a, 14th day after treatment
Experimental: (§5) (Test on Crop Plant Selectivity by Upland Field Foliage Treatment)
(§6) In a plastic pot (surface area: 600 cm^2) filled with sand, corn (Ze), pale smartweed (Po), slender amaranth (Am), common lambsquarters (Ch) and China jute (Ab) were sown and cultured in a green house for 2 weeks. […] The plants were then cultured in a green house, and the evaluation of the herbicidal effects and phytotoxicity was conducted on the 14th day after the treatment in accordance with the standards as identified in Table 47.

Compound	Phytotoxicity Ze
Cn1c(C(F)(F)F)ccc(-c2cc(COC3CCCC3)c(Cl)cc2F)c1=O [Compound 1-201]	2
Cn1c(C(F)(F)F)ccc(-c2cc3c(cc2F)sc(=O)n3C)c1=O [Compound 3-6]	2

Test system: China jute (Ab)
Test: Test Example 11: crop plant selectivity by upland field foliage treatment (corn), herbicidal effects
Format: in vivo
Parameters: scale not given here
Conditions: upland field foliage treatment (corn test), dose 1.6 g ai/10a, 14th day after treatment
Experimental: as §5, §6

Compound	Herbicidal effects Ab
Cn1c(C(F)(F)F)ccc(-c2cc(COC3CCCC3)c(Cl)cc2F)c1=O [Compound 1-201]	5
Cn1c(C(F)(F)F)ccc(-c2cc3c(cc2F)sc(=O)n3C)c1=O [Compound 3-6]	5

Test system: common lambsquarters (Ch)
Test: as above
Format: in vivo
Parameters: scale not given here
Conditions: upland field foliage treatment (corn test), dose 1.6 g ai/10a, 14th day after treatment
Experimental: as §5, §6

Compound	Herbicidal effects Ch
Cn1c(C(F)(F)F)ccc(-c2cc(COC3CCCC3)c(Cl)cc2F)c1=O [Compound 1-201]	5
Cn1c(C(F)(F)F)ccc(-c2cc3c(cc2F)sc(=O)n3C)c1=O [Compound 3-6]	5

Test system: pale smartweed (Po)
Test: as above
Format: in vivo
Parameters: scale not given here
Conditions: upland field foliage treatment (corn test), dose 1.6 g ai/10a, 14th day after treatment
Experimental: as §5, §6

Compound	Herbicidal effects Po
Cn1c(C(F)(F)F)ccc(-c2cc(COC3CCCC3)c(Cl)cc2F)c1=O [Compound 1-201]	5
Cn1c(C(F)(F)F)ccc(-c2cc3c(cc2F)sc(=O)n3C)c1=O [Compound 3-6]	5

Test system: slender amaranth (Am)
Test: as above
Format: in vivo
Parameters: scale not given here
Conditions: upland field foliage treatment (corn test), dose 1.6 g ai/10a, 14th day after treatment
Experimental: as §5, §6

Compound	Herbicidal effects Am
Cn1c(C(F)(F)F)ccc(-c2cc(COC3CCCC3)c(Cl)cc2F)c1=O [Compound 1-201]	5
Cn1c(C(F)(F)F)ccc(-c2cc3c(cc2F)sc(=O)n3C)c1=O [Compound 3-6]	5
